The values below come from patent US8722863B2, “Solid state forms of fidaxomycin and processes for preparation thereof” (Teva Pharmaceutical Works Ltd., priority 2012, dated 2014).

One series deals with Clostridium difficile. The settings on record: cited from earlier work.
Series [1] in a line: hygroscopicity test according to the European pharmacopeia 5.11. The note with it: Ph. Eur. chapter 5.11 hygroscopicity test. The class given is physicochemical. An excerpt: As used herein and unless indicated otherwise, the term “non-hygroscopic” in relation to crystalline Fidaxomycin refers to less than 0.5%, and preferably less than 0.2% (w/w) absorption of water, for example atmospheric water, by the crystalline Fidaxomycin, as determined according to Ph. Eur. chapter 5.11 (“Hygroscopicity”).
As discussed above, Fidaxomycin Form Z1 has advantageous properties. In particular, the crystalline Fidaxomycin Form Z1 of the present invention is non-hygroscopic. When performing the hygroscopicity test according to the European pharmacopeia 5.11, the mass increase of Form Z1 was below about 0.2%. The advantageous of form Z1 as non-hygroscopic material provides better processing of Fidaxomycin in formulation. e.g., being less sticky and stable following granulation procedure.

The nature of series [2]: stability in formulations. It counts as physicochemical. The note with it: retains the anhydrous polymorph. An excerpt:
The ability to retain the anhydrous polymorph provides an opportunity to improve the performance characteristic in formulation e.g. dissolution profile and bioavailability.

A short description of series [3]: stability under extreme conditions. The class given is physicochemical. An excerpt: As discussed above, Form C of Fidaxomycin has advantageous properties. In particular, Form C of Fidaxomycin of the present invention can be reproduced in a high quality, i.e., chemical and polymorphical purity. The X-ray powder diffraction pattern of Form C is obtained in high crystallinity, as indicated by a high resolution PXRD pattern with relatively sharp, defined peaks. In addition, Form C is stable under extreme conditions.

Turning to `CCc1c(Cl)c(O)c(Cl)c(O)c1C(=O)O[C@H]1[C@H](O)[C@H](OC)[C@H](OC/C2=C\C=C\C[C@H](O)/C(C)=C/[C@H](CC)[C@@H](O[C@@H]3OC(C)(C)[C@@H](OC(=O)C(C)C)[C@H](O)[C@@H]3O)/C(C)=C/C(C)=C/C[C@@H]([C@@H](C)O)OC2=O)O[C@@H]1C` [Fidaxomycin, 3-(((6-Deoxy-4-O-(3,5-dichloro-2-ethyl-4,6-dihydroxybenzoyl)-2-O-methyl-β-D-mannopyranosyl)oxy)-methyl)-12(R)-[(6-deoxy-5-C-methyl-4-O-(2-methyl-1-oxopropyl)-b-D-lyxo-hexopyranosyl)oxy]-11(S)-ethyl-8(S)-hydroxy-18(S)-(1(R)-hydroxyethyl)-9,13,15-trimethyloxacyclooctadeca-3,5,9,13,15-pentaene-2-one], the “activity against Clostridium difficile” value in the series with Clostridium difficile was “shows activity”. As to `CCc1c(Cl)c(O)c(Cl)c(O)c1C(=O)O[C@H]1[C@H](O)[C@H](OC)[C@H](OC/C2=C\C=C\C[C@H](O)/C(C)=C/[C@H](CC)[C@@H](O[C@@H]3OC(C)(C)[C@@H](OC(=O)C(C)C)[C@H](O)[C@@H]3O)/C(C)=C/C(C)=C/C[C@@H]([C@@H](C)O)OC2=O)O[C@@H]1C` [Form Z1], the “mass increase (hygroscopicity)” value in series [1] was “below 0.2%”. Also, the stability in formulations result in series [2] is recorded as “excellent stability”. For `CCc1c(Cl)c(O)c(Cl)c(O)c1C(=O)O[C@H]1[C@H](O)[C@H](OC)[C@H](OC/C2=C\C=C\C[C@H](O)/C(C)=C/[C@H](CC)[C@@H](O[C@@H]3OC(C)(C)[C@@H](OC(=O)C(C)C)[C@H](O)[C@@H]3O)/C(C)=C/C(C)=C/C[C@@H]([C@@H](C)O)OC2=O)O[C@@H]1C` [Form C], the “stability under extreme conditions” value in series [3] is recorded as “stable”.
